Test results published in ChEMBL document CHEMBL1201862, “PubChem BioAssay data set” (2004).
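Protocol summary: plate cells (96-well), add compound at 5 concentrations, incubate 48 h, interpolate endpoints linearly. GI50: concentration for 50% inhibition of growth.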 Activity calls are given as the source filed them. No stated cut-off is given here; in the data, active = GI50 up to about 1.1 µM and inactive = higher.

Legend:
Assay in all cases: NCI tumour cell line growth inhibition, 48 h
HCT-15 = tested on: HCT-15
NCI-H23 = tested on: NCI-H23
BT-549 = tested on: BT-549
HCT-116 = tested on: HCT-116
NCI/ADR-RES = tested on: NCI/ADR-RES
COLO 205 = tested on: COLO 205
A498 = tested on: A498
HOP-62 = tested on: HOP-62
SF-539 = tested on: SF-539
Malme-3M = tested on: Malme-3M
OVCAR-8 = tested on: OVCAR-8
SN12C = tested on: SN12C
OVCAR-5 = tested on: OVCAR-5
IGROV-1 = tested on: IGROV-1
K562 = tested on: K562
RXF 393 = tested on: RXF 393
EKVX = tested on: EKVX
T47D = tested on: T47D
ACHN = tested on: ACHN
SF-268 = tested on: SF-268
PC-3 = tested on: PC-3
HOP-92 = tested on: HOP-92
UACC-62 = tested on: UACC-62
NCI-H226 = tested on: NCI-H226
SK-MEL-28 = tested on: SK-MEL-28
LOX IMVI = tested on: LOX IMVI
RPMI-8226 = tested on: RPMI-8226
UACC-257 = tested on: UACC-257
CCRF-CEM = tested on: CCRF-CEM
786-0 = tested on: 786-0
U-251 = tested on: U-251
Hs-578T = tested on: Hs-578T
UO-31 = tested on: UO-31
HT-29 = tested on: HT-29
SNB-19 = tested on: SNB-19
SW-620 = tested on: SW-620
OVCAR-4 = tested on: OVCAR-4
DU-145 = tested on: DU-145
HCC 2998 = tested on: HCC 2998
SK-MEL-5 = tested on: SK-MEL-5
SK-OV-3 = tested on: SK-OV-3
MCF7 = tested on: MCF7
NCI-H522 = tested on: NCI-H522
NCI-H460 = tested on: NCI-H460
SF-295 = tested on: SF-295
KM12 = tested on: KM12
A549 = tested on: A549
CAKI-1 = tested on: CAKI-1
SK-MEL-2 = tested on: SK-MEL-2
HL-60 = tested on: HL-60
OVCAR-3 = tested on: OVCAR-3
MDA-N = tested on: MDA-N
MDA-MB-435 = tested on: MDA-MB-435
M14 = tested on: M14
MDA-MB-231 = tested on: MDA-MB-231
TK-10 = tested on: TK-10

## O=C(O)/C(Cc1ccc([N+](=O)[O-])cc1)=N\O
HCT-15
  GI50: > 100 µM
NCI-H23
  GI50: > 100 µM (inactive)
BT-549
  GI50: 76.2 µM (inactive)
HCT-116
  GI50: > 100 µM (inactive)
NCI/ADR-RES
  GI50: > 100 µM (inactive)
COLO 205
  GI50: > 100 µM (inactive)
A498
  GI50: > 100 µM (inactive)
HOP-62
  GI50: > 100 µM (inactive)
SF-539
  GI50: > 100 µM (inactive)
Malme-3M
  GI50: > 100 µM (inactive)
OVCAR-8
  GI50: > 100 µM (inactive)
SN12C
  GI50: > 100 µM (inactive)
OVCAR-5
  GI50: > 100 µM (inactive)
IGROV-1
  GI50: 69.8 µM (inactive)
K562
  GI50: > 100 µM (inactive)
RXF 393
  GI50: > 100 µM (inactive)
EKVX
  GI50: 39.1 µM (inactive)
T47D
  GI50: 94.6 µM (inactive)
ACHN
  GI50: > 100 µM (inactive)
SF-268
  GI50: > 100 µM (inactive)
PC-3
  GI50: > 100 µM (inactive)
HOP-92
  GI50: 27.9 µM (inactive)
UACC-62
  GI50: > 100 µM (inactive)
NCI-H226
  GI50: > 100 µM (inactive)
SK-MEL-28
  GI50: > 100 µM (inactive)
LOX IMVI
  GI50: > 100 µM (inactive)
RPMI-8226
  GI50: > 100 µM (inactive)
UACC-257
  GI50: > 100 µM (inactive)
CCRF-CEM
  GI50: 73.6 µM (inactive)
786-0
  GI50: > 100 µM (inactive)
U-251
  GI50: > 100 µM (inactive)
Hs-578T
  GI50: 31.8 µM (inactive)
UO-31
  GI50: 23.8 µM (inactive)
HT-29
  GI50: > 100 µM (inactive)
SNB-19
  GI50: > 100 µM (inactive)
SW-620
  GI50: > 100 µM (inactive)
OVCAR-4
  GI50: 89.5 µM (inactive)
DU-145
  GI50: > 100 µM (inactive)
HCC 2998
  GI50: > 100 µM (inactive)
SK-MEL-5
  GI50: > 100 µM (inactive)
SK-OV-3
  GI50: > 100 µM (inactive)
MCF7
  GI50: > 100 µM (inactive)
NCI-H522
  GI50: 29.6 µM (inactive)
NCI-H460
  GI50: > 100 µM (inactive)
SF-295
  GI50: > 100 µM (inactive)
KM12
  GI50: > 100 µM (inactive)
A549
  GI50: > 100 µM (inactive)
CAKI-1
  GI50: > 100 µM (inactive)
SK-MEL-2
  GI50: > 100 µM (inactive)
HL-60
  GI50: 61.9 µM (inactive)
OVCAR-3
  GI50: > 100 µM (inactive)
MDA-N
  GI50: > 100 µM (inactive)
MDA-MB-435
  GI50: > 100 µM (inactive)
M14
  GI50: > 100 µM (inactive)
MDA-MB-231
  GI50: > 100 µM (inactive)
TK-10
  GI50: > 100 µM (inactive)
